Entries after “also recorded” stand apart in the source; their conditions may differ.
Assays:
[1] = test system: estrogen-responsive reporter gene, ERE-tk109-Luc; assay: Inhibition of E2-induced transcription, ERE-tk109-Luc reporter in MCF-7 cells; type: cell-based; settings: Homo sapiens, MCF7; read-out: Inhibition of E2-induced transcription in breast cells, IC50
Procedure: Representative compounds were tested for their inhibitory activity of estrogen according to the assay methods described in Hodges-Gallagher, L., Valentine, C. V., El Bader, S. and Kushner, P. J. (2007) “Histone Deacetylase Inhibitors Enhance the Efficacy of Hormonal Therapy Agents on Breast Cancer Cells and Blocks Anti-estrogen-Driven Uterine Cell Proliferation” Breast Cancer Res Treat, November; 105(3):297-309. Specifically, MCF-7 cells were transiently transfected with an estrogen-responsive reporter gene, ERE-tk109-Luc. Transfected cells were treated with antiestrogens in hormone-depleted medium in the presence of 100 pM 17β-estradiol (E2) for 22 hours. Luciferase activity was normalized to activity of E2 alone and IC50's were calculated using the least squares fit method.
A representative result for inhibition of E2-induced transcription in breast cells (nM) is shown below in tabular form: […]

[2] = test system: AP activity in ECC-1 cells; assay: Alkaline phosphatase (AP) assay in ECC-1 uterine cells, agonist mode; type: cell-based, human; settings: for AP Agonist Act. (% of E2): ECC-1 cells, without E2; for Induction of Alkaline Phosphatase (AP) % E2: mean of n experiments; for Induction of AP activity in uterine cells (% E2): representative result
Procedure: Method for performing the alkaline phosphatase (AP) assay. ECC-1 cells were trypsinized and resuspended in hormone-depleted media and plated at a density of 15k cells per well into a 96-well plate for at least 4 hours. Cells were treated with antiestrogens for 3 days and plates were subsequently frozen at −80° C. Thawed plates were incubated with a chromogenic substrate of AP, p-nitrophenyl phosphate (Thermo Fisher Scientific), for 40 minutes at 40° C. and absorbances were read at 405 nm. AP activity was normalized to the activity of E2 alone. […] A representative result for induction of AP activity in uterine cells (% E2) is shown below in tabular form: […]

[3] = test system: AP activity in ECC-1 cells; assay: Alkaline phosphatase (AP) assay in ECC-1 uterine cells co-treated with 500 pM E2, antagonist mode; type: cell-based, human; settings: for AP Antagonist Act. (% of E2): ECC-1 cells, co-treated with 500 pM E2
Procedure: Method for performing the alkaline phosphatase (AP) assay. ECC-1 cells were trypsinized and resuspended in hormone-depleted media and plated at a density of 15k cells per well into a 96-well plate for at least 4 hours. Cells were treated with antiestrogens for 3 days and plates were subsequently frozen at −80° C. […] AP activity was normalized to the activity of E2 alone.

ERα [4] = biological target: T1, ERα (Homo sapiens (Human), UniProt P03372); assay: ER degradation, immunoblot of MCF-7 protein extracts; type: cell-based; settings: 100 nM, 24 hours
Procedure: MCF-7 cells were treated with 100 nM anti-estrogen for 24 hours in serum-free medium and protein extracts immunoblotted with D12 antibody to ERα and β-actin (Santa Cruz Biotechnology). The numbers below the blots represent the optical density of ERα bands of each treatment relative to percent vehicle after normalization to β-actin.
Target sequence in this assay (P03372 whole entry): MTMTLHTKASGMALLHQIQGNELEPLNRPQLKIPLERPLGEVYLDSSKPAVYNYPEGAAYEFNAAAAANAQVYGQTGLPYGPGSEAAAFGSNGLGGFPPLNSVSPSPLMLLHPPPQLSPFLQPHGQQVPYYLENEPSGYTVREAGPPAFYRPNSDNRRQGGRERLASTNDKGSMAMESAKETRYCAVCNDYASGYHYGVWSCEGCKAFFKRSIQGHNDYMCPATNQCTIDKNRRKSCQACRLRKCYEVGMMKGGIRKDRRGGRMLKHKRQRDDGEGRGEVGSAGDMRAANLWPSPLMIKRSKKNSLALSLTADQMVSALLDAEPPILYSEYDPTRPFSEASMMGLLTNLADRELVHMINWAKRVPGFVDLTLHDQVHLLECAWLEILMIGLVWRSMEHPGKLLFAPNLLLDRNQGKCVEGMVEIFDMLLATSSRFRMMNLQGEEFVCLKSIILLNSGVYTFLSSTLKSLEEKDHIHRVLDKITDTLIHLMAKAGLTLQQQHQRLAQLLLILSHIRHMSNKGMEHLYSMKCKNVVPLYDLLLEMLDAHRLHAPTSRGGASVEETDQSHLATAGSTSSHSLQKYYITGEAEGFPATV

ERα [5] = biological target: T1, ERα; assay: ERα levels in breast cells, in-cell western (Colorimetric In-Cell ELISA); type: cell-based
Procedure: IC50's were calculated using the least squares fit method. Error bars represent S.E.M from triplicate wells.
Target sequence in this assay (P03372 whole entry): as above

ERα [6] = biological target: T1, ERα; assay: ERα binding, LanthaScreen Competitive Binding Assay (TR-FRET)
Text: Compounds were screened for their ability to displace a fluorescent labelled tracer ERα ligand via time resolved fluorescent energy transfer using the LanthaScreen Competitive Binding Assay screening service (Thermo Fisher Scientific).
Target sequence in this assay (P03372 whole entry, looked up): as the sequence (P03372 whole entry) above

[7] = test system: Clone 18 cells (MCF7/Her2/neu); assay: Xenograft study, MCF7/Her2/neu tumors in mice; type: in vivo, athymic ovariectomized nu/nu mice; settings: oral gavage, doses as low as 10 mg/kg
Procedure: Xenograft studies were conducted by the Preclinical Therapeutics Core at the University of California, San Francisco in accordance with the Institutional Animal Care and Use Committee (IACUC) guidelines. Clone 18 cells (MCF7/Her2/neu) cells were grown in culture and implanted into athymic ovariectomized nu/nu mice. To stimulate tumor growth 0.36 mg estradiol 90 day release pellets (Innovative Research, Saratoga, FL) were implanted along with cells. When tumors reached 150-250 cubic millimeters the pellets were exchanged for 0.18 mg estradiol 90 day release pellets and divided into groups of six mice per treatment group. One of those groups received vehicle only (0.5% CMC+8% DMSO), and Compound B and Compound C each had 2 groups treated with either 10 or 100 mg/kg compound. Compounds were administered by oral gavage twice daily, except once daily on weekends/holidays for the first 21 days, and once daily after day 21. Tumors and bodyweight were measured twice weekly.

[8] = Pharmacokinetics in mice after oral gavage; type: in vivo, BALB/c female mice; settings: 5 mg/kg oral gavage; for Oral drug exposure, free fraction taken into account: mice, 0-24 hours
Procedure: Pharmacokinetics were studied in BALB/c female mice. For each arm, three BALB/c female mice were given 5 mg/kg of compound in 0.5% CMC formulation by oral gavage. Concentration of compounds in mouse plasma and their metabolites were analyzed at each time point using LC-MS/MS. The concentrations were adjusted for the free fraction of drug in mouse plasma (method below). Area under the curve was calculated using the trapezoidal rule for 0-24 hours.

PR = settings: De Savi; cited from earlier work
[9] = 100 nM dose, mean of n experiments

SMILES | AP Agonist Act. (% of E2) [2] | Induction of Alkaline Phosphatase (AP) % E2 [2] [% E2] | Induction of AP activity in uterine cells (% E2) [2] [% E2] | Residual AP activity with 100 nM compound plus E2 (% of E2 alone) ([3]; 100 nM antiestrogen, 500 pM E2) [% E2] | AP Antagonist Act. (% of E2) [3] | Residual AP activity with 100 nM compound plus E2 (% of E2 alone) [3, 9] [% E2] | other results
C[C@@H]1Cc2c([nH]c3ccccc23)[C@@H](c2c(F)cc(/C=C/C(=O)O)cc2F)N1CC(C)(C)F [AZD9496, (E)-3-(3,5-Difluoro-4-((1R,3R)-2-(2-fluoro-2-methylpropyl)-3-methyl-2,3,4,9-tetrahydro-1H-pyrido[3,4-b]indol-1-yl)phenyl)acrylic Acid] | 35 % of E2 | 39 | 35 |  |  |  | IC50 [1]: 1.3 nM; Estrogen-like activity as AP agonist and antagonist in comparison to Compounds A-D ([2]; AP agonist and antagonist modes): approximately 10 fold
CCCN1CC(Oc2ccc([C@@H]3c4[nH]c5ccccc5c4C[C@@H](C)N3CC(C)(C)F)cc2F)C1 [Compound A, (1R,3R)-2-(2-fluoro-2-methylpropyl)-1-(3-fluoro-4-((1-propylazetidin-3-yl)oxy)phenyl)-3-methyl-2,3,4,9-tetrahydro-1H-pyrido[3,4-b]indole] | 3.96 % of E2 |  | 3.96 | 3.15 | 3.15 % of E2 |  | 
CCCN1CC(Oc2ccc([C@@H]3c4[nH]c5ccccc5c4C[C@@H](C)N3CC(C)(C)F)cc2)C1 [Compound B, (1R,3R)-2-(2-fluoro-2-methylpropyl)-3-methyl-1-(4-((1-propylazetidin-3-yl)oxy)phenyl)-2,3,4,9-tetrahydro-1H-pyrido[3,4-b]indole] | 2.18 % of E2 | 1.78 | 2.18 | 1.96 | 1.96 % of E2 | 1.56 | AP activity of ECC-1 cells normalized to the effect of 500 pM 17β-estradiol ([2]; compound alone): 2.18%; AP activity of ECC-1 cells co-treated with 500 pM 17β-estradiol, % of the activity 17β-estradiol would produce ([3]; co-treated with 500 pM 17β-estradiol): 1.96%; Estrogen receptor degradation in MCF-7 cells (immunoblot, FIG. 7) (ERα [4]): degrades the estrogen receptor; Relative change in ERα levels in breast cells % Veh (ERα [5]): 45 % Veh; Relative change in ERα levels in breast cells pIC50 (ERα [5]): 8.57; Estrogen receptor degradation in MCF-7 cells (in-cell western, FIG. 2) (ERα [5]; 24 hours): degrades the estrogen receptor; ERα binding activity in words (ERα [6]): comparable activity to fulvestrant, Goodacre Compound 102, and Goodacre Compound 107; ERα binding pIC50 (ERα [6]): 8.57; Effect on tumor size in xenografted mice [7]: shrinks MCF-7 (HER2/neu) tumors; also recorded: outstandingly potent in shrinking human breast cancer xenografts; Oral bioavailability and half-life ([8]; BALB/c mice): high oral bioavailability and half-life; Oral drug exposure, free fraction taken into account [8]: better 24 hour drug exposure compared to other compounds; also recorded: substantially higher oral drug exposure
C[C@@H]1Cc2c([nH]c3ccccc23)[C@@H](c2ccc(OCCN3CC(CF)C3)cc2)N1CC(C)(C)F [Compound C, (1R,3R)-2-(2-fluoro-2-methylpropyl)-1-(4-(2-(3-(fluoromethyl)azetidin-1-yl)ethoxy)phenyl)-3-methyl-2,3,4,9-tetrahydro-1H-pyrido[3,4-b]indole] | 3.1 % of E2 | 1.71 | 3.1 | 2.5 | 2.5 % of E2 | 1.76 | Relative change in ERα levels in breast cells % Veh (ERα [5]): 42 % Veh; Relative change in ERα levels in breast cells pIC50 (ERα [5]): 8.87; ERα binding activity in words (ERα [6]): comparable activity to fulvestrant, Goodacre Compound 102, and Goodacre Compound 107; Effect on tumor size in xenografted mice [7]: outstandingly potent in shrinking human breast cancer xenografts; Oral drug exposure, free fraction taken into account [8]: substantially higher oral drug exposure
C[C@@H]1Cc2c([nH]c3ccccc23)[C@@H](c2c(F)cc(OCCN3CC(CF)C3)cc2F)N1CC(C)(C)F [Compound D, (1R,3R)-1-(2,6-difluoro-4-(2-(3-(fluoromethyl)azetidin-1-yl)ethoxy)phenyl)-2-(2-fluoro-2-methylpropyl)-3-methyl-2,3,4,9-tetrahydro-1H-pyrido[3,4-b]indole, reference compound] | 3.37 % of E2 | 4.45 | 3.37 | 4.07 | 4.07 % of E2 | 3.98 | 
C[C@]12CC[C@@H]3c4ccc(O)cc4C[C@@H](CCCCCCCCC[S+]([O-])CCCC(F)(F)C(F)(F)F)[C@H]3[C@@H]1CC[C@@H]2O (stereo partly shown) [Fulvestrant, reference compound] |  | −0.04 | −0.13 | −2.2 |  | −0.09 | 
CCCN1CC(Oc2cc(F)c([C@@H]3c4[nH]c5ccccc5c4C[C@@H](C)N3CC(C)(C)F)c(F)c2)C1 [Goodacre Compound 107, (1R,3R)-1-(2,6-difluoro-4-((1-propylazetidin-3-yl)oxy)phenyl)-2-(2-fluoro-2-methylpropyl)-3-methyl-2,3,4,9-tetrahydro-1H-pyrido[3,4-b]indole, reference compound] |  | 0.00 |  |  |  | 1.03 | 
Oc1ccc2c(c1)CC[C@H](c1ccccc1)[C@@H]2c1ccc(OCCN2CCCC2)cc1 [Lasofoxifene, reference compound] |  |  | 86 | 83 |  |  | 
C[C@@H]1Cc2c([nH]c3ccccc23)[C@@H](c2ccc(/C=C/C(=O)O)cc2)N1CC(C)(C)F [WO 2014/191726 Example 2] |  |  |  |  |  |  | PR agonist pIC50 (PR): <5.5

Source: US20240131013A1, “TETRAHYDRO-1H-PYRIDO[3,4-b]INDOLE ANTI-ESTROGENIC DRUGS” (Olema Pharmaceuticals, Inc., priority 2015, published 2024)
